Data from patent US20210268070A1, “Use of Immunomodulators to Control Infection and Stimulate Healing in Normal and Diabetic Wounds” (priority 2018, published 2021).

Experiments:
[1] = tested on: P. aeruginosa PA103; assay: Wound model of infection with PA103 in normal (C57BL) mice; format: in vivo
Procedure: (§1) The implant model of infection in C57B mice was used for 10^6 PA103 (FIG. 2A) or 10^6 USA300 MRSA (FIG. 2C). The wound model of infection was used for 10^6 PA103 in C57BL mice (FIG. 2B) or diabetic db/db mice (FIG. 2D). Infection was carried out at the time of surgery by adding bacteria directly to the surgical sites. Immunomodulators, namely, LPS (10 ng or 100 ng), fMLP (10 ng or 100 ng), CCL3 (1 μg) were added topically at the surgical sites at the time of surgery & infection. GM-CSF (10 μg/kg), tobramycin (Tob at 3.5 mg/kg), and vancomycin (40 mg/kg) were added systemically by i.p. injection 1 h before surgical implantation and infection. Infection levels were determined 24 h following infection (N>4 animals/group; NS=not significant, * p<0.01, ** p<0.001, ***p<0.0001 One-way ANOVA).
(§2) (15A) C57BL/6 mice received 40 mg/kg prophylaxis (Sys) vancomycin (Vanc) or 3.5 mg/kg tobramycin (Tobra) by i.p. injection. (15A) 1 h after antibiotic administration, 106 CFU of USA300 was added to implant after insertion into facia (Implant Model). (15B) 1 h after antibiotic administration, 10^6CFU of USA300 or 106CFU PA103 (Pa) were added full-thickness wounds in of C57BL/6 (Wound Model). Infection levels at implant surgical site (Tissue & Implant) or a distant site (Spleen), or wound tissues were assessed 24 h following infection. (N>4 animals/group, * p<0.01, ***p<0.0001, One-way ANOVA).
(§3) We assessed these immunomodulators for their ability to control wound and/or implant SS's in normal (C57BL/6) or diabetic (db/db) mice. We acknowledge that diabetic individuals are not as immunocompromised as other immunocompromised patient groups. […] All immunomodulators were added locally at the surgical sites at the time of infection, except GM-CSF (10 μg/kg) which was administered systemically by i.p. injection 1 h prior to surgery per its FDA-approved route of delivery. […] CCL3 and GM-CSF are also tested using the implant model of infection. Here, we tested CCL3 and GM-CSF in the wound model of infection in C57B mice.
Implant surgery and wound surgery and surgical site infection are performed according to the following method. On the day of surgery, all mice are anesthetized by an intraperitoneal injection of a ketamine/xylazine mixture (90 mg/kg ketamine+5 mg/kg xylazine for mice). The back of the animals is shaved using an electric shave and scrubbed with alcohol swabs 3 times, a topical antiseptic solution (Hibiclens; chlorhexidine gluconate) is applied to the skin. The surgical procedures are performed with sterile instruments, sterile surgical gloves, and aseptic techniques as follows. For wound surgical procedure, a sterile biopsy punch (5-7 mm diameter) is used to punch through the full thickness of the back skin below the shoulder blades. Four 5-7 mm skin wounds are made on the back of each mouse. Wounds placed in this area cannot be reached by the animals and therefore are protected from self-licking. For implant surgery, a 4-mm long lateral skin incision is made on the upper back, and the skin is retracted. The space above the muscle is opened using blunt dissection with fine forceps, to create a rostral fascia indentation. Then, immunomodulators at indicated concentrations (in a 20 μL volume) or PBS control are injected into the fascia indentation.

[2] = tested on: P. aeruginosa PA103; assay: Implant model of infection with PA103; format: in vivo; settings: prophylaxis tobramycin 3.5 mg/kg i.p. 1 h before implantation and infection, FIG. 2A
Procedure: as §1, §3
(§4) Implant surgery and wound surgery and surgical site infection are performed according to the following method. On the day of surgery, all mice are anesthetized by an intraperitoneal injection of a ketamine/xylazine mixture (90 mg/kg ketamine+5 mg/kg xylazine for mice). The back of the animals is shaved using an electric shave and scrubbed with alcohol swabs 3 times, a topical antiseptic solution (Hibiclens; chlorhexidine gluconate) is applied to the skin. The surgical procedures are performed with sterile instruments, sterile surgical gloves, and aseptic techniques as follows. […]

[3] = tested on: USA300 MRSA; assay: Implant model of infection with USA300 MRSA; format: in vivo
Procedure: as §1, §2, §3
as §4, with “follows. For wound surgical procedure, a sterile biopsy punch (5-7 mm diameter) is used to punch through the full thickness of the back skin below the shoulder blades.” for “follows.”

[4] = tested on: leukocytes; assay: Leukocyte migration (H&E staining) and activation (MPO ELISA) in normal wound; format: in vivo, C57B mice; settings: compared to PBS, FIGS. 10A-10D
Text: FIGS. 10A-10D illustrate that immunomodulatory treatment enhances leukocyte migration and neutrophil activation in a normal wound. (10A, 10B—CCL3, 10C—LPS, fMLF, 10D—GM-CSF), N=4; Significance determined as compared to PBS *<0.05, **p<0.01, ***p<0.001.
We next examined the impact of CCL3 topical treatment on leukocyte migration by H&E staining, and on leukocyte activation by myeloperoxidase (MPO) measurements by ELISA. (MPO is primarily used as a marker for neutrophil activation but it can also be expressed to lesser extent in macrophages).

[5] = tested on: MRSA; assay: Normal wound model of MRSA infection; format: in vivo; settings: FIG. 6B
Procedure: as §3
as §4, with “follows. For wound surgical procedure, a sterile biopsy punch (5-7 mm diameter) is used to punch through the full thickness of the back skin below the shoulder blades.” for “follows.”

`NC[C@H]1O[C@H](O[C@H]2[C@H](O)[C@@H](O[C@H]3O[C@H](CO)[C@@H](O)[C@H](N)[C@H]3O)[C@H](N)C[C@@H]2N)[C@H](N)C[C@@H]1O` [tobramycin] was tested. Which “infection levels in wound tissues after prophylaxis antibiotic” value ([1]; C57BL/6 mice, 3.5 mg/kg i.p. 1 h before 10^6 CFU PA103, 24 h following infection, FIG. 15B) did it give?
The value was “effective”.

What about the “bacterial loads on implants as compared to implants treated with immunomodulators” value [2] of the same molecule?
The value was “significantly higher”.

Which “infection levels at implant surgical site (Tissue & Implant) or a distant site (Spleen)” value ([3]; C57BL/6 mice, prophylaxis antibiotic i.p. 1 h before 10^6 CFU USA300, 24 h following infection, FIG. 15A) does the source give for `CN[C@H](CC(C)C)C(=O)N[C@H]1C(=O)N[C@@H](CC(N)=O)C(=O)N[C@H]2C(=O)N[C@H]3C(=O)N[C@H](C(=O)N[C@H](C(=O)O)c4cc(O)cc(O)c4-c4cc3ccc4O)[C@H](O)c3ccc(c(Cl)c3)Oc3cc2cc(c3O[C@@H]2O[C@H](CO)[C@@H](O)[C@H](O)[C@H]2O[C@H]2C[C@](C)(N)[C@H](O)[C@H](C)O2)Oc2ccc(cc2Cl)[C@H]1O` [vancomycin] here?
The value was “effective”.

What about the “bacterial loads on implants as compared to implants treated with immunomodulators” value ([3]; prophylaxis vancomycin 40 mg/kg i.p., FIG. 15A & 2C) of the same molecule?
Its value is “significantly higher”.

With “Granulocyte-macrophage colony-stimulating factor [GM-CSF]” as the molecule, how does the “leukocyte migration and neutrophil activation in a normal wound” value [4] read?
The value was “enhances”.

What about the “PA103 infection in wounds as compared to PBS-treated wounds” value ([1]; C57BL mice, 10^6 PA103, systemic 10 μg/kg i.p. 1 h prior to surgery, 24 h, FIG. 2B) of the same molecule?
Its value is “significantly reduce”.

What about the “reduction of PA103 infection in wounds, compared with CCL3 or tobramycin” value ([1]; systemic GM-CSF 10 μg/kg i.p., FIG. 2B) of the same molecule?
Its value is “not as effective”.

Which results are given for “IL-1β: pro-inflammatory cytokine interleukin-1 (SEQ ID NO: 11, precursor)”?
infection control against P. aeruginosa PA103 in normal wounds ([1]; C57B mice, immunomodulator added locally at time of infection, compared to PBS, FIGS. 3A, 4A, 4B, 6A): effective; controlling MRSA infection in normal wound model [5]: effective
